Series [1] relates to T24 (Urinary bladder cancer cells). Put plainly: MTT cell survival assay, T24 urinary bladder cancer cells. The following applies: Homo sapiens; MTT test; cells incubated at 37 °C for 48 h (Table 1 footnote); mean ± SEM, n = 3. The class given is cell-based. On the procedure:
(§1) Human cancer cell lines from bladder (T24), prostate (DU–145), breast (MCF–7) and non-tumor HEK-293 cells were obtained from the American Type Culture Collection (ATCC, Manassas, VA, USA). The cultures were maintained at a density of 1–2 × 10^5 cells/mL and the medium was changed at 48- and 72-h intervals. They were cultured in high-glucose Dulbecco’s modified Eagle medium (Gibco, Grand Island, NY, USA) supplemented with 10% fetal calf serum, penicillin (100 U/mL) and streptomycin (100 μg/mL). All cultures were kept at 37 °C in 95% air/5% CO2 at 100% humidity. Phosphate-buffered saline (PBS) was purchased from Gibco. Cells were incubated at the indicated times at 37 °C with or without compounds 1–14 at various concentrations.
(§2) The cytotoxicity of the compounds 1–14 was assessed by following the reduction of MTT (3-(4,5-Dimethylthiazol-2-yl)-2,5-diphenyltetrazolium bromide) to formazan blue. […] Doxorubicin was used as a standard chemotherapeutic agent (positive control). Cells were washed twice with warm PBS and further incubated with MTT (0.5 mg/mL) for 2 h at 37 °C. Blue formazan crystals were solubilized by adding 100 µL DMSO/well, and the optical density of colored solutions was subsequently read at 550 nm in a microplate reader Tecan infinite M200 Pro (Männedorf, Switzerland). The compounds 1–14 were dissolved in DMSO (stock solution at 100 mM) and further diluted to be evaluated at the following concentrations: 0 μM, 1 μM, 10 μM, 20 μM, 40 μM, 60 μM, 80 μM and 100 μM. Results are expressed as % of MTT reduction compared to untreated control conditions. The IC50 values were calculated using the GraphPad Prism 8.0.2 software (San Diego, CA, USA).
(In general: Tetrazolium dyes change colour on reduction, which living cells bring about.)

Series [2] in a line: Half-wave potentials by cyclic voltammetry. The note with it: for −E^I½ (mV): acetonitrile, platinum electrode, room temperature, negative of the potential; for half-wave potential: signed value. It is filed as physicochemical. On the procedure: Calculation of lipophilicity (ClogP) and molar refractivity (CMR) was assessed by using the ChemBioDraw Ultra 11.0 software and the obtained values are shown in Table 3. Redox potentials of 2-phenylamino-3-acyl-1,4-naphtoquinones 1–14 were measured by cyclic voltammetry at room temperature in acetonitrile as solvent using a platinum electrode and 0.1M tetraethylammonium tetrafluoroborate as the supporting electrolyte.

Series [3] concerns TP53. Put plainly: RT-qPCR mRNA level of TP53 in DU-145 cells. It is filed as cell-based, human. The following applies: DU145 cells, 24 h; compound 4 at 1 µM, compound 11 at 6 µM; normalized to B2M, 2^−∆∆Ct vs vehicle (1.00); mean ± SEM. On the procedure: (§3) The […] cells were cultured as previously mentioned. […] Afterwards, they were washed with phosphate-buffered saline. The cellular lysate was prepared with E.Z.N.A.®RNA-Lock Reagent (Omega Bio-tek, Norcross, GA, USA) to preserve and immediately stabilize the total RNA for the subsequent gene expression assays. The total RNA isolated from the cells using the E.Z.N.A.®HP Total RNA Isolation Kit (Omega Bio-tek) was reverse-transcribed to cDNA using the AffinityScript QPCR cDNA Synthesis Kit (Agilent Technologies, Santa Clara, CA, USA) and 1000 ng of the RNA sample.
(§4) The cDNA synthesized was employed for qPCR using Brilliant III Ultra-Fast SYBR®Green QPCR Master Mix (Agilent Technologies) in an Mx3000P qPCR System (Agilent Technologies), employing a 96-well plate with 20 μL of PCR reaction per well and 10 pmol each of forward and reverse gene-specific primers. Nine genes were analyzed: B2M, Bcl2, CDC25A, CCN2, GSR, HDAC4, mTOR, TNF, TP53 and their quantitative real-time (qPCR) primer sequences are reported in Table S1 (supplementary material). The relative gene expressions were determined using Beta-2-microglobulin (B2M) as housekeeping, and the delta-delta Ct method (2^−∆∆Ct method) with regard to the vehicle-treated group (i.e., the reference group). Five biological replicates were used from each group (treated and reference group). […]
In general terms: Real-time PCR tracks product formation cycle by cycle.

The test system of series [4] is mTOR. Put plainly: RT-qPCR mRNA level of mTOR in DU-145 cells. It is filed as cell-based, human. The note with it: DU145 cells, 24 h; compound 4 at 1 µM, compound 11 at 6 µM; normalized to B2M, 2^−∆∆Ct vs vehicle (1.00); mean ± SEM; * p < 0.05 vs vehicle. As for the experimental part: as §3, §4
Series [5] concerns CCN2. Put plainly: RT-qPCR mRNA level of CCN2 in DU-145 cells. The note with it: DU145 cells, 24 h; compound 4 at 1 µM, compound 11 at 6 µM; normalized to B2M, 2^−∆∆Ct vs vehicle (1.00); mean ± SEM. It is filed as cell-based, human. On the procedure: as §3, §4
In series [6] the test system is TNF. Put plainly: RT-qPCR mRNA level of TNF in DU-145 cells. The following applies: DU145 cells, 24 h; compound 4 at 1 µM, compound 11 at 6 µM; normalized to B2M, 2^−∆∆Ct vs vehicle (1.00); mean ± SEM. It is filed as cell-based, human.
Series [7] deals with GSR. Nature of the series: RT-qPCR mRNA level of GSR in DU-145 cells. It is filed as cell-based, human. The note with it: DU145 cells, 24 h; compound 4 at 1 µM, compound 11 at 6 µM; normalized to B2M, 2^−∆∆Ct vs vehicle (1.00); mean ± SEM. On the procedure:
as §3, §4

Series [8] concerns MCF-7 (mammary cancer cells). Put plainly: MTT cell survival assay, MCF-7 mammary cancer cells. The note with it: Homo sapiens, MCF7; MTT test; cells incubated at 37 °C for 48 h (Table 1 footnote); mean ± SEM, n = 3. The class given is cell-based. As for the experimental part:
as §1, §2

Series [9] has as its system HDAC4. Nature of the series: RT-qPCR mRNA level of HDAC4 in DU-145 cells. The following applies: DU145 cells, 24 h; compound 4 at 1 µM, compound 11 at 6 µM; normalized to B2M, 2^−∆∆Ct vs vehicle (1.00); mean ± SEM. It is filed as cell-based, human. On the procedure: as §3, §4
Series [10] concerns HEK-293 cells/tumour cells. Nature of the series: Mean selective index, HEK-293 vs tumour cells. The following applies: MSI = IC50 values HEK-293 cells/IC50 values tumour cells. The class given is cell-based, human. As for the experimental part:
The cytotoxicity of the compounds 1–14 was assessed by following the reduction of MTT (3-(4,5-Dimethylthiazol-2-yl)-2,5-diphenyltetrazolium bromide) to formazan blue. Cells were seeded into 96-well plates at a density of 10,000 cells/well for 24 h and then they were further incubated for 24 h with or without the quinones. Doxorubicin was used as a standard chemotherapeutic agent (positive control). Cells were washed twice with warm PBS and further incubated with MTT (0.5 mg/mL) for 2 h at 37 °C. Blue formazan crystals were solubilized by adding 100 µL DMSO/well, and the optical density of colored solutions was subsequently read at 550 nm in a microplate reader Tecan infinite M200 Pro (Männedorf, Switzerland). The compounds 1–14 were dissolved in DMSO (stock solution at 100 mM) and further diluted to be evaluated at the following concentrations: 0 μM, 1 μM, 10 μM, 20 μM, 40 μM, 60 μM, 80 μM and 100 μM. Results are expressed as % of MTT reduction compared to untreated control conditions. The IC50 values were calculated using the GraphPad Prism 8.0.2 software (San Diego, CA, USA).

Series [11] deals with non-tumorigenic HEK-293 (embryonic kidney cells). Put plainly: MTT cell survival assay, non-tumorigenic HEK-293 cells. The note with it: Homo sapiens, HEK293; MTT test; cells incubated at 37 °C for 48 h (Table 1 footnote); mean ± SEM, n = 3. It is filed as cell-based. On the procedure:
as §1, §2

The test system of series [12] is DU-145 (prostate cancer cells). Nature of the series: MTT cell survival assay, DU-145 prostate cancer cells. The class given is cell-based. The following applies: Homo sapiens, MTT test, cells incubated at 37 °C for 48 h (Table 1 footnote), mean ± SEM, n = 3. As for the experimental part:
as §1, §2

Series [13] has as its system Bcl-2. Nature of the series: RT-qPCR mRNA level of Bcl-2 in DU-145 cells. The class given is cell-based, human. The following applies: DU145 cells, 24 h; compound 4 at 1 µM, compound 11 at 6 µM; normalized to B2M, 2^−∆∆Ct vs vehicle (1.00); mean ± SEM. As for the experimental part:
as §3, §4

Series [14] relates to CDC25A. Put plainly: RT-qPCR mRNA level of CDC25A in DU-145 cells. It is filed as cell-based, human. The following applies: DU145 cells, 24 h; compound 4 at 1 µM, compound 11 at 6 µM; normalized to B2M, 2^−∆∆Ct vs vehicle (1.00); mean ± SEM. As for the experimental part: as §3, §4
Series [15] has as its system MCF-7 human breast cancer cell line. More on the design: method as in PMID 23167798. The following applies: cytotoxicity against MCF-7; cited from earlier work.

These results are taken from PMC10254843, “Discovery of New 2-Phenylamino-3-acyl-1,4-naphthoquinones as Inhibitors of Cancer Cells Proliferation: Searching for Intra-Cellular Targets Playing a Role in Cancer Cells Survival” (Molecules, 2023).

SMILES strings stand for the structures. A value given as a limit tells only on which side of the number the result lay.

With `O=C(C1=C(Nc2ccccc2)C(=O)c2ccccc2C1=O)c1ccccc1` [Compound 4, 2-(Phenylamino)-3-benzoylnaphthalene-1,4-dione], the IC50 in series [1] was determined as 15.8 ± 0.9 µM; in [8], 5.16 ± 0.16 µM; in series [11], 45.2 ± 6.59 µM; in [12] it was 0.82 ± 0.1 µM. In addition, the “−E^I½ (mV)” value in [2] is 695 mV. The compound also had a half-wave potential in series [2] of −695 mV. The “Relative expression level (mRNA level) TP53” value in series [3] is reported as 0.94 ± 0.04. In addition, the “Relative expression level (mRNA level) mTOR” value in series [4] is on record as 0.84 ± 0.06. The “Relative expression level (mRNA level) CCN2” value in series [5] stood at 0.95 ± 0.03. Moreover, the “Relative expression level (mRNA level) TNF” value in series [6] amounted to 1.20 ± 0.08. For the same compound, the “Relative expression level (mRNA level) GSR” value in [7] is listed as 0.95 ± 0.05. Moreover, the “Relative expression level (mRNA level) HDAC4” value in [9] turned out to be 0.91 ± 0.05. The “MSI (mean selective index)” value in series [10] was 6.2. Also, in [13], the “Relative expression level (mRNA level) Bcl-2” value is 0.81 ± 0.05. Also, the “Relative expression level (mRNA level) CDC25A” value in series [14] was determined as 1.09 ± 0.10.

For the compound `O=C(C1=C(Nc2ccccc2)C(=O)c2ccccc2C1=O)c1ccco1` [Compound 11], the IC50 was 11.7 ± 0.84 µM in series [1], 4.64 ± 0.23 µM in series [8], over 100 µM in series [11] and 5.45 ± 0.21 µM in series [12]. Besides, in series [2], the “−E^I½ (mV)” value came out at 578 mV. The compound also displayed a half-wave potential in series [2] of −578 mV. Also, in series [3], the “Relative expression level (mRNA level) TP53” value is 0.87 ± 0.05. Further, the “Relative expression level (mRNA level) CCN2” value in series [5] stood at 0.95 ± 0.09. In addition, the “Relative expression level (mRNA level) TNF” value in series [6] is on record as 0.93 ± 0.08. Moreover, the “Relative expression level (mRNA level) GSR” value in series [7] is 0.94 ± 0.06. Moreover, the “Relative expression level (mRNA level) HDAC4” value in series [9] was determined as 0.81 ± 0.07. Moreover, in series [10], the “MSI (mean selective index)” value was 13.7. Further, the “Relative expression level (mRNA level) CDC25A” value in series [14] was 0.90 ± 0.05.

`O=C(C1=C(Nc2ccccc2)C(=O)c2ccccc2C1=O)c1ccco1` [compound V]: the IC50 in series [15] was 1.5 µM.

Broadly, the IC50 is the concentration that inhibits the measured activity by half.
